This note sets out measurements from patent US20120108563A1, “Methods Of Treating Liposarcoma” (Infinity Pharmaceuticals, Inc., priority 2009, published 2012).

In the experiment the test system is dedifferentiated metastatic liposarcoma. The experiment in a line: Administration of compound 2 to a human subject with dedifferentiated metastatic liposarcoma (imaging assessment, RECIST). In kind it is in vivo. The note with it: one human patient. On the procedure: A human subject with dedifferentiated metastatic liposarcoma was treated with compound 2 at 400 mg/m^2. The patient received two doses of compound 2 at 400 mg/m^2 during the first cycle of therapy. The patient received two doses at 300 mg/m^2 during the second cycle of therapy. The patient then received 225 mg/m^2 for seven cycles of therapy. […] The patient received a total of 9 cycles of compound 2 with maximal tumor shrinkage occurring after 7 cycles (54% tumor shrinkage).

Setting [1] is: after first cycle of therapy (two doses at 400 mg/m^2).

Molecule `C=CCNc1c(O)cc2c(O)c1C[C@@H](C)C[C@H](OC)[C@H](O)[C@@H](C)/C=C(\C)[C@H](OC(N)=O)[C@@H](OC)/C=C\C=C(/C)C(=O)N2.Cl` [compound 2, Hydrochloride Salt of the Hydroquinone of 17-AAG] returned a maximal tumor shrinkage (after 7 cycles, of 9 cycles in total) of 54%. Further, under setting [1], the “imaging assessment of response (RECIST)” value is “stable disease” and the “tumor shrinkage using Response Evaluation Criteria in Solid Tumors (RECIST)” value stood at 28%. Further, the response achieved entry (by the end of cycle 3) is listed as “partial response”. This molecule also displayed a tumor shrinkage (by the end of cycle 3 (cycle 1 at 400 mg/m^2, cycle 2 at 300 mg/m^2, then 225 mg/m^2)) of 35%.
